Peptide text beside a SMILES is read from it.
Legend:
[1] = cited from earlier work; for sweetness potency (sensory evaluations): more potent than sucrose, Crammer and Ikan 1986; for sweetness potency: relative to sucrose
[2] = system: human taste testers; experiment: Sensory flavor profile analysis, Example 3.1: KCl, MgCl2 or CaCl2 individually at <12 mM with REBA in Citric Acid Buffer (Table 7); assay type: in vivo; conditions: used individually at <12 mM
Protocol: (§1) Representative formulations within the scope of the disclosed formulations were prepared and subjected to sensory testing by the methods described above in the section entitled Testing Methodology, where formulations are rated on a 0-15 scales for the Taste Attributes: Sweetness Intensity (SI), Saltiness Intensity (SaI), Sourness Intensity (SoI), Bitterness Intensity (BI), Astringency Intensity (AI), Body/Mouthfeel Intensity (B/MF) and Sweetness Linger (SL). And, in addition, formulations are rated for the additional Taste Attributes of Sweetness Appearance Time (AT) and Sweetness Desensitization (SD). AT was rated by the verbal descriptors Rapid (R), Delay (D) or SD (Significant Delay) and SD was rated by the verbal descriptors None (N), Slight (S) or Medium (M). In sensory test sessions, the number of samples evaluated was limited to 6. In the initial phase of formulation screening, testing was carried out in triplicate with a single subject extensively experienced in the technique of flavor profile analysis. Following formulation screening, testing on promising formulations was carried out with a trained panel as described above. […]
This study assessed the effect of K^+, Mg^2+, and Ca^2+ (from KCl, MgCl2, and CaCl2 salts) used individually in a disclosed Taste Modulator Composition on the Appearance Time (AT), Sweetness Linger (SL), Body/Mouthfeel (B/MF) and Sweetness Desensitization (SD) of REBA in Citric Acid Buffer at moderate concentrations (i.e., <12 mM).

[3] = system: human taste testers; experiment: Sensory flavor profile analysis, Example 3.3: KCl, MgCl2 or CaCl2 individually at 30 mM with REBA in Citric Acid Buffer (Table 9); assay type: in vivo; conditions: used individually at 30 mM
Protocol: as §1
This study assessed the effect of K^+, Mg^2+, and Ca^2+ (from KCl, MgCl2, and CaCl2 salts) used individually at 30 mM in a disclosed Taste Modulator Composition on the Appearance Time (AT), Sweetness Linger (SL), Body/Mouthfeel (B/MF) and Sweetness Desensitization (SD) of REBA in Citric Acid Buffer.

[4] = system: human taste testers; experiment: Sensory flavor profile analysis, Example 3.2: KCl, MgCl2 or CaCl2 individually at 20 mM with REBA in Citric Acid Buffer (Table 8); assay type: in vivo; conditions: used individually at 20 mM
Protocol: as §1
This study assessed the effect of K^+, Mg^2+, and Ca^2+ (from KCl, MgCl2, and CaCl2 salts) used individually at 20 mM in a disclosed Taste Modulator Composition on the Appearance Time (AT), Sweetness Linger (SL), Body/Mouthfeel (B/MF) and Sweetness Desensitization (SD) of REBA in Citric Acid Buffer.

[5] = Concentration/Response (C/R) function of sweeteners; assay type: in vivo
Source text: In discussion of mid-calorie beverages, it is useful to describe a suitable methodology for definition of the compositions of such caloric/non-caloric sweetener blends. One such system is a previously described Concentration/Response (C/R) function useful for many caloric as well as non-caloric sweeteners (see G. E. DuBois, et al., “A Systematic Study of Concentration-Response Relationships of Sweeteners”, In Sweeteners: Discovery, Molecular Design and Chemoreception, D E Walters, F Orthoefer and G E DuBois, Eds., ACS Symposium Series 450, ACS Books, Washington, D.C., 1990).
The following example serves to show how the C/R function can be utilized in design of a mid-caloric beverage. Assume that the objective is to formulate a 50% calorie-reduced beverage with a blend of sucrose and REBA, where the original full-calorie beverage contained 10.0% sucrose. Assuming there is no synergy between sucrose and REBA, such a blend would require 5.0% sucrose and a concentration of REBA equivalent to 5.0% sucrose in sweetness. The requisite concentration (C) of REBA is easily calculated from its C/R function R=10C/(200+C) as follows: 5.0=10×C/(200+C); and C=200 mg/L.

[6] = system: human taste testers; experiment: Sensory Testing Methodology: Sweetness Linger of reference standards in water; assay type: in vivo; conditions: 10% Sucrose and 500 PPM REBA, perceived sweetness intensity @ 120 sec
Source text: In various aspects, the present disclosure pertains to methods of testing the disclosed sweetener compositions, e.g., a sensory methodology or method for sweetener evaluation. In a particular aspect, the sensory methodology used is known as a “Flavor Profile Analysis” as has been previously described (see: B. T. Carr, S. D. Pecore, K. M. Gibes and G. E. DuBois, “Sensory Methods for Sweetener Evaluation”, Chapter 11 In Flavor Measurement, C. T. Ho and C. H. Manley, Eds., Marcel Dekker, New York, N.Y., 1993). The full set of sensory parameters that are assessed in the sensory testing method are: (a) Sweetness Intensity (which can be abbreviated in tables herein as “S”); (b) Sourness Intensity ((which can be abbreviated in tables herein as “So”); (c) Saltiness Intensity (which can be abbreviated in tables herein as “Sa”); (d) Bitterness Intensity (which can be abbreviated in tables herein as “B”); (e) Body/Mouthfeel Intensity (which can be abbreviated in tables herein as “B/MF”); (f) Astringency Intensity (which can be abbreviated in tables herein as “A”); (g) Sweetness Linger (which can be abbreviated in tables herein as “SL”); (h) Sweetness Appearance Time (which can be abbreviated in tables herein as “AT”); and (i) Sweetness Desensitization (which can be abbreviated in tables herein as “SD”). […]

[7] = cited from earlier work; for Kd, apparent Sweetener/Receptor dissociation constant / Rm, Maximal Response: from R = Rm x C/(kd + C)
[8] = Dissolution of solid REBD in CAB-K buffer, visual inspection; assay type: physicochemical; conditions: 500 PPM in pH 3.1 CAB-K; after standing overnight (about 20 h)

For `C[C@H](CC[C@@H](O[C@@H]1O[C@H](CO[C@@H]2O[C@H](CO)[C@@H](O)[C@H](O)[C@H]2O)[C@@H](O)[C@H](O)[C@H]1O[C@@H]1O[C@H](CO)[C@@H](O)[C@H](O)[C@H]1O)C(C)(C)O)[C@H]1CC[C@@]2(C)[C@@H]3CC=C4[C@@H](CC[C@H](O[C@@H]5O[C@H](CO[C@@H]6O[C@H](CO)[C@@H](O)[C@H](O)[C@H]6O)[C@@H](O)[C@H](O)[C@H]5O)C4(C)C)[C@]3(C)[C@H](O)C[C@]12C` [mogroside V, mogro-3-O-[β-D-glucopyranosyl (1-6)-β-D-glucopyranoside]-24-O-{[β-D-glucopyranosyl(1-2)]-[?-D-glucopyranosyl(1-6)]-β-D-gluco-pyranoside}], the sweetness ([1]; times cane sugar on a weight basis, estimated) is listed as “approximately 250 times”.

For Rebaudioside B, the “sweetness potency (sensory evaluations)” value [1] is given as 300-350 times.

In the case of `[Cl-].[Cl-].[Mg+2]` [Mg^2+, Magnesium Chloride], the “effect on the AT, SL, B/MF and SD of REBA” value (“effect … B/MF and SD of REBA” for short) [2] is reported as “did not significantly affect”, the “effect … B/MF and SD of REBA” value [3] is reported as “do affect” and the “effect … B/MF and SD of REBA” value [4] is reported as “modestly affected”.

In the case of `C=C1C[C@@]23CC[C@H]4[C@@](C)(CCC[C@@]4(C)C(=O)O[C@@H]4O[C@H](CO)[C@@H](O)[C@H](O)[C@H]4O)[C@@H]2CC[C@]1(O[C@@H]1O[C@H](CO)[C@@H](O)[C@H](O)[C@H]1O[C@@H]1O[C@@H](C)[C@H](O)[C@@H](O)[C@H]1O)C3` [Dulcoside A], the sweetness potency [1] is given as 30 times.

For `C=C1C[C@@]23CC[C@H]4[C@@](C)(CCC[C@@]4(C)C(=O)O[C@@H]4O[C@H](CO)[C@@H](O)[C@H](O)[C@H]4O)[C@@H]2CC[C@]1(O[C@@H]1O[C@H](CO)[C@@H](O)[C@H](O[C@@H]2O[C@H](CO)[C@@H](O)[C@H](O)[C@H]2O)[C@H]1O[C@@H]1O[C@H](CO)[C@@H](O)[C@H](O)[C@H]1O)C3` [Rebaudioside A], the sweetness intensity equivalent ([5]; 500 mg/L REBA, from C/R function R=10.0C/(200+C)) was 7.14 % sucrose, the “requisite concentration (C) equivalent to 5.0% sucrose in sweetness” value ([5]; calculated from C/R function R=10C/(200+C)) was 200 mg/L and the “SL (Sweetness Linger)” value [6] was 5. For the same compound, the “sweetness potency (sensory evaluations)” value [1] was 350-450 times, the “Kd, apparent Sweetener/Receptor dissociation constant” value [7] was 200 µg/mL and the “Rm, Maximal Response” value [7] was 10 Sucrose Equivalents of Sweetness.

For `COC(=O)[C@H](Cc1ccccc1)NC(=O)[C@@H](N)CC(=O)O` [Aspartame] (H-Asp-Phe-OMe), the “Kd, apparent Sweetener/Receptor dissociation constant” value [7] is given as 560 µg/mL and the “Rm, Maximal Response” value [7] is given as 16.0 Sucrose Equivalents of Sweetness.

For Rebaudioside C, the sweetness potency [1] is given as 40-60 times.

For `C=C1C[C@@]23CC[C@H]4[C@@](C)(CCC[C@@]4(C)C(=O)O[C@@H]4O[C@H](CO)[C@@H](O)[C@H](O)[C@H]4O)[C@@H]2CC[C@]1(O[C@@H]1O[C@H](CO)[C@@H](O)[C@H](O)[C@H]1O[C@@H]1O[C@H](CO)[C@@H](O)[C@H](O)[C@H]1O)C3` [Stevioside], the sweetness potency [1] is given as 110-270 times.

In the case of `OC[C@H]1O[C@@](CO)(O[C@H]2O[C@H](CO)[C@@H](O)[C@H](O)[C@H]2O)[C@@H](O)[C@@H]1O` [Sucrose, reference compound], the “C/R Function” value ([7]; R in Sucrose Equivalents of Sweetness, C in % (w/v) for sugars, in mg/L for HP sweeteners) is listed as “R = C”.

In the case of `C=C1C[C@@]23CC[C@H]4[C@@](C)(CCC[C@@]4(C)C(=O)O[C@@H]4O[C@H](CO)[C@@H](O)[C@H](O)[C@H]4O[C@@H]4O[C@H](CO)[C@@H](O)[C@H](O)[C@H]4O)[C@@H]2CC[C@]1(O[C@@H]1O[C@H](CO)[C@@H](O)[C@H](O[C@@H]2O[C@H](CO)[C@@H](O)[C@H](O)[C@H]2O)[C@H]1O[C@@H]1O[C@H](CO)[C@@H](O)[C@H](O)[C@H]1O)C3` [Rebaudioside D], the appearance of solution [8] is reported as “still cloudy”.

For `[Ca+2].[Cl-].[Cl-]` [Ca^2+, Calcium Chloride], the “effect … B/MF and SD of REBA” value [2] was “did not significantly affect”, the “effect … B/MF and SD of REBA” value [3] was “do affect” and the “effect … B/MF and SD of REBA” value [4] was “modestly affected”.

With `[Cl-].[K+]` [K^+, Potassium Chloride] the “effect … B/MF and SD of REBA” value [2] was “did not significantly affect”, the “effect … B/MF and SD of REBA” value [3] was “do affect” and the “effect … B/MF and SD of REBA” value [4] was “modestly affected”.

For `CC1=CC(=O)[N-]S(=O)(=O)O1.[K+]` [Acesulfame-K], the “Kd, apparent Sweetener/Receptor dissociation constant” value [7] is given as 470 µg/mL and the “Rm, Maximal Response” value [7] is given as 11.6 Sucrose Equivalents of Sweetness.

Reference: US10602758B2, “Methods and compositions for improved taste quality” (Almendra Pte. Ltd, priority 2018, dated 2020)
